Source: article PMC3722118, “Hellebrin and its aglycone form hellebrigenin display similar in vitro growth inhibitory effects in cancer cells and binding profiles to the alpha subunits of the Na^+/K^+-ATPase” (Molecular Cancer, 2013)
Where two headings read alike, the source gives them in different places.

Experiments:
[1] = system: HCT-116 p53/wt and HCT-116 p53/ko colon carcinoma cells; assay: MTT viability, p53 wild-type versus knock-out model; assay type: cell-based, human; settings: 72 hours
Excerpt: (§1) The following human cancer cell lines and their chemoresistant sublines were used in this study: the colon carcinoma cell line HCT-116 p53/wt and the p53 knock-out cell line HCT-116 p53/ko (generously donated by B. Vogelstein, Johns Hopkins University, Baltimore, MD, USA); the epidermal carcinoma-derived cell line KB-3-1 and the ABCB1-overexpressing subline KB-C-1 (generously donated by D.W. Shen, Bethesda, USA); the small cell lung carcinoma cell line GLC-4 and the ABCC1- and LRP-overexpressing subline GLC-4/ADR (from E.G. de Vries, Groningen, Netherlands); the ovarian carcinoma cell line A2780 and the cisplatin resistant subline A2780cis (purchased from Sigma-Aldrich); and the promyelocytic leukemia cell line HL60 and the mitoxantrone resistant subline HL60/mx (generously donated by G. Harker, Salt Lake City, USA). All cell lines were grown in RPMI 1640 supplemented with 10% fetal bovine serum with the exception of the HCT-116 cells, which were grown in McCoy’s medium with 10% serum.
(§2) Figure 4 Impact of different MDR mechanisms on the cytotoxicity of hellebrigenin. […] Viability was determined using a 3-(4,5-dimethythiazol-2-yl)-2,5-diphenyltetrazolium bromide (MTT) colorimetric assay. […]

[2] = system: MDR cancer cell models; assay: MTT viability in several MDR cancer cell models; assay type: cell-based, human; settings: overexpression of ABC-transporters and/or altered glutathione metabolism, 72 hours
Excerpt: as §1, §2

[3] = system: HT-29 colon cancer cells; assay: O2 consumption rate (MitoXpress assay); assay type: cell-based, human; settings: compounds at their IC50 (MTT), 24 h
[4] = system: NHDF fibroblasts; assay: MTT growth inhibition in non-cancerous control cell line; assay type: cell-based; settings: normal human fibroblasts, read-out: in vitro growth inhibitory effects (IC50) in NHDF fibroblasts
Excerpt: The histological types and origins of the eight human cancer cell lines that were used for the MTT colorimetric assay are detailed in the legend of Table 1. Two mouse cancer cell lines were also used, the CT26.WT colon cancer cell line (ATCC code CRL-2638) and the B16F10 melanoma cell line (ATCC code CRL-6475). Both cell lines were obtained from the American Type Culture Collection (ATCC, Manassas, VA). A control cell line (human NHDF fibroblasts) was obtained from PromoCell (code c-12300; Heidelberg, Germany). The cell lines detailed in Figure 2A are a generous gift from the National Cancer Institute (NCI, Bethesda, USA) to Steven Karlish’s lab.
The cancer cells were cultured in RPMI (Lonza, Verviers, Belgium) medium supplemented with 10% heat-inactivated fetal calf serum (Lonza). All culture media were supplemented with 4 mM glutamine, 100 μg/mL gentamicin, 200 U/mL penicillin and 200 μg/mL streptomycin (Lonza). The NHDF fibroblasts were cultured in Lonza medium cc3132 KT FGM-2 BulletKit.
The overall growth level of the human cancer cell lines was determined using a colorimetric MTT (3-(4,5-dimethylthiazol-2yl)-2,5-diphenyltetrazolium bromide, Sigma, Belgium) assay as detailed previously. Briefly, this test measures the number of metabolically active (thus living) cells that are able to transform the yellow MTT into the blue formazan dye via a mitochondrial reduction involving succinate dehydrogenase. The amount of formazan obtained at the end of the experiment (measured by spectrophotometry) is directly proportional to the number of living cells. The determination of the optical density in the control compared to the treated cells therefore enables quantitative measurements of the effects of compounds on the growth of normal as well as cancer cells in vitro.
Each experimental condition was performed in six replicates.

[5] = system: U373 GBM cells; settings: 10 nM
Experimental: Computer-assisted phase contrast microscopy (quantitative videomicroscopy) analyses were used to morphologically visualize the effects induced by hellebrin (data not shown) and hellebrigenin (Figure 5) in human U373 GBM cells.
Figure 5 Computer-assisted phase-contrast microscopy (quantitative videomicroscopy) illustrations of human U373 glioblastoma cells treated with 10 nM hellebrigenin for 72 h. […] Cells were not starved during the experiments. The images provided here are representative images obtained from triplicates in each experimental condition.

[6] = system: KB-3-1 and ABCB1-overexpressing KB-C-1 cells; assay: MTT viability, MDR model; assay type: cell-based, human; settings: 72 hours
Excerpt: as §1, §2

[7] = system: GLC-4 and ABCC1- and LRP-overexpressing GLC-4/ADR small cell lung carcinoma cells; assay: MTT viability, MDR model; assay type: cell-based, human; settings: 72 hours
Excerpt: as §1, §2

Row | SMILES | in vitro growth inhibitory activity in p53 wild-type versus p53KO HCT-116 cells [1] | activity in several MDR cancer cell models versus parental cells [2] | O2 consumption rate (cell respiration) [3] | IC50 ([4]; NHDF) [µM] | U373 GBM cells died ([5]; 72 h of treatment) | cytotoxic versus cytostatic nature (morphological analyses) ([5]; up to 72 h) | sensitivity of KB-C-1 compared to parental cell line [6] | sensitivity of GLC4/ADR compared to parental cell line [7] | IC50 [4] [µM]
1 | C[C@@H]1O[C@@H](O[C@H]2CC[C@]3(C=O)[C@H]4CC[C@]5(C)[C@@H](c6ccc(=O)oc6)CC[C@]5(O)[C@@H]4CC[C@]3(O)C2)[C@H](O)[C@H](O)[C@H]1O[C@@H]1O[C@H](CO)[C@@H](O)[C@H](O)[C@H]1O [Hellebrin] | similar | equally active | significantly reduced | > 10 | – | – | – | – | –
2 | C[C@]12CC[C@H]3[C@@H](CC[C@]4(O)C[C@@H](O)CC[C@]34C=O)[C@@]1(O)CC[C@@H]2c1ccc(=O)oc1 [Hellebrigenin] | similar | equally active | – | – | approximately 50% | cytotoxic compound and not a cytostatic one | equally sensitive | equally sensitive | > 10
